Measurements taken from patent US10828337B2, “Materials and methods for controlling vasculogenesis from endothelial colony forming cells” (Indiana University Research and Technology Corporation, priority 2011, dated 2020).

B1: TIMP-3: inhibitor (R&D Systems) added to the cultures to inhibit MT1-MMP activity (protein, UniProt P35625 24-211, looked up)
Metalloproteinase inhibitor 3: CTCSPSHPQDAFCNSDIVIRAKVVGKKLVKEGPFGTLVYTIKQMKMYRGFTKMPHVQYIHTEASESLCGLKLEVNKYQYLLTGRVYDGKMYTGLCNFVERWDQLTLSQRKGLNYRYHLGCNCKIKSCYYLPCFVTSKNECLWTDMLSNFGYPGYQSKHYACIRQKGGYCSWYRGWAPPDKSIINATDP

Test system: ECFC vacuole formation
Assay: Perturbation of ECFC vacuole formation by inhibitors
Format: cell-based, Human
Settings: for way in which total vacuole area was decreased: Casin 2.5 μM (Cdc42), NSC23766 25 μM (Rac1), 3.0 mg/ml oligomer rich matrices (FIGS. 11 G, H); for effect on ECFC vacuole formation: MAB17781 1 μg/ml, Casin 2.5 μM, NSC23766 25 μM, TIMP-3 5 μg/ml
Experimental: For analysis of in vitro vacuole formation, cultures were fixed with 4% paraformaldehyde for 20 minutes at 48 hours. Scaffolds were stained with 0.1% toluidine blue 0 in 30% methanol for 20 minutes and then washed with PBS.
A Leica DM IRE2 microscope (Leica Microsystems, Bannockburn, Ill.) with attached Retiga 4000R digital camera (QImaging, Surrey, BC, Canada) was used to image the entire area of each matrix using a 10× objective and the middle 9 fields of view were used for analysis. Lumens were quantified using a standard image analysis system Metamorph (Molecular Devices, Sunnyvale, Calif.). […] Lumens were defined as areas completely surround by a toluidine blue labeled endothelial cell membrane.
Chemical inhibitors TIMP-3 (5 μg/ml, R&D Systems, Minneapolis, Minn.), Casin (2.5 μM), NSC23766 (25 μM), or MAB17781 (1 μg/ml, R&D Systems, Minneapolis, Minn.) were added into the media during ECFC culture in 3.0 mg/ml matrices polymerized with the oligomer rich fraction. Treatments were conducted in duplicate and at least three independent experiments were conducted.
To first determine if this signaling axis was involved in ECFC vacuole formation chemical inhibitors to β1 integrin, Cdc42, Rac1, and MT1-MMP were added to cultures to test if they would alter cell behavior.

[1] = 3.0 mg/ml oligomer rich matrices

Molecule	way in which total vacuole area was decreased	effect on ECFC vacuole formation [1]	vacuole density (inhibitor in media (MAB17781 1 μg/ml, TIMP-3 5 μg/ml), 3.0 mg/ml oligomer rich matrices, control 11.24±0.65)	vacuole area (inhibitor in media (MAB17781 1 μg/ml, TIMP-3 5 μg/ml), 3.0 mg/ml oligomer rich matrices, control 536.09±138.24)	total vacuole area (inhibitor in media (MAB17781 1 μg/ml, TIMP-3 5 μg/ml), 3.0 mg/ml oligomer rich matrices, control 19103.60±5447.67)
OCCNC1CCCc2c1[nH]c1ccc(-c3ccccc3)cc21 (centres unmarked) [Casin]	decreased total vacuole area by decreasing vacuole density	inhibited ECFC vacuole formation			
CCN(CC)CCCC(C)Nc1nc(C)cc(Nc2ccc3nc(C)cc(N)c3c2)n1 (centres unmarked) [NSC23766]	decreased total vacuole area by decreasing average vacuole area	inhibited ECFC vacuole formation			
B1		inhibited ECFC vacuole formation	3.31±1.38 vacuoles/mm^2	146.04±45.86 μm^2	2288.76±1685.92 μm^2
